PubChem BioAssay AID2060500 (Molecular Pharmacology Branch, DTP, NCI, 2025)

Test system: 596521-263-R-J1-PDC complex spheroids, viability % of control
Assay: Anticancer human tumor 596521-263-R-J1-PDC patient-derived soft tissue sarcoma cell line growth inhibition [GQUAD]
Settings: for IC50: curve of first compound; for viability, T/C: stronger effect = lower value
Source text: DNA G-quadruplex Stabilizer Agents in Combinations in Complex Spheroids
A high-throughput screen of multi-cell type tumor spheroids was designed to identify active combinations of DNA G-quadruplex stabilizer agents and targeted small molecules. Complex spheroids include a stromal component modeled by human endothelial cells (HUVEC) and fibroblasts modeled by human mesenchymal stem cells (MSCs). The concentration ranges selected for each drug and investigational agent were based upon clinically achievable concentrations if the clinical Cmax of the agent was known.
Compounds. The drugs and investigational agents: pidnarulex (CX-5461; NSC782164), APTO-253 (NSC789042), BRACO-19 (NSC847499), peposertib (NSC802822), ceralasertib (NSC780249), elimusertib (NSC800525), camonsertib (NSC841442), AZD-1390 (NSC803789), olaparib (NSC753686), talazoparib (NSC767125), ART-558 (NSC835418), sotorasib (NSC818433), MRTX-1133 (NSC836407), SN-38 (NSC673596), topotecan (NSC609699), etoposide (NSC141540), doxorubicin (NSC123127), gemcitabine (NSC613327), 5-fluorouracil (NSC19893), paclitaxel (NSC125973), vemurafenib (NSC761431), panobinostat (NSC761190), R-306465 (JNJ-16241199; NSC773264), adavosertib (NSC754352), TP-3654 (NSC805149), carboplatin (NSC241240), KSQ-4279 (NSC840948), and staurosporine (NSC755774) were obtained from the National Cancer Institute (NCI) Developmental Therapeutics Program Chemical Repository (34). The FDA-approved anticancer drug set is available from the NCI Developmental Therapeutics Program. […] The stock solutions were prepared in dimethyl sulfoxide (DMSO, Sigma-Aldrich, St. Louis, MO, cat. D2650) at 800-fold the tested concentration and stored at -70 degrees C prior to their use. All drugs and investigational agents were tested over a range starting from a high concentration at or near the clinical Cmax and decreasing in half-log increments. If the clinical Cmax for an agent had not been determined, the highest concentration tested was 10 microM.
2.3 Cell Culture. All cells were maintained in an incubator at 37 degrees C and 5% CO2 with 95% humidity. The PDC lines were cultured according to standard operating procedures established by the NCI PDMR. All PDCs were thawed and cultured in Matrigel-coated flasks prepared with a working solution of 1X Ham's F-12 nutrient mix, without supplementation (Invitrogen, cat. 11765054), 100 U/mL penicillin-streptomycin (Invitrogen, cat. 15140122), and 2.5% Matrigel (Corning Inc., cat. 354248) for the first three passages. The 857933-349-R-J2-PDC line was cultured in 6C/Colon 1B media, which includes advanced DMEM/F-12 (Thermo Fisher Scientific, cat. 12634028), 10 mM HEPES (Thermo Fisher Scientific, cat. 15630080), 1X GlutaMAX supplement (Thermo Fisher Scientific, cat. 35050061), 0.1 mg/mL primocin (InvivoGen, cat. ant-pm-2), 10% defined fetal bovine serum, heat inactivated (HyClone Laboratories Inc., cat. SH30070.03HI), 50% L-WRN conditioned media (ATCC, cat. CRL-3276), 1.25 mM N-Acetyl-L-cysteine (Sigma-Aldrich, cat. A9165), 10 mM nicotinamide (Sigma-Aldrich, cat. N0636), 1X B-27 supplement (Thermo Fisher Scientific, cat. 17504044), 1X N-2 supplement (Thermo Fisher Scientific, cat. 17502048), 10 microM Y-27632 dihydrochloride (Tocris Bioscience, cat. 1254), and 50 ng/mL human EGF recombinant protein (Thermo Fisher Scientific, cat. PHG0311). The 485176-168-R4-J1-PDC line was cultured in Panc media, which includes all 6C/Colon 1B media components plus 100 ng/mL human FGF-10 (Thermo Fisher Scientific, cat. 100-26), 500 nM SB-431542 (Selleckchem, cat. S1067), and gastrin (Tocris, cat. 3006).
[…]

[1] = second compound 0.0316 µM, first compound 0.0316 µM
[2] = second compound 0.0316 µM, first compound 0.1 µM
[3] = second compound 0.0316 µM, first compound 0.316 µM
[4] = second compound 0.0316 µM, first compound 1 µM
[5] = second compound 0.0316 µM, first compound 3.16 µM
[6] = second compound 0.0316 µM, first compound 10 µM
[7] = second compound 0.1 µM, first compound 0.0316 µM
[8] = second compound 0.1 µM, first compound 0.1 µM
[9] = second compound 0.1 µM, first compound 0.316 µM
[10] = second compound 0.1 µM, first compound 1 µM
[11] = second compound 0.1 µM, first compound 3.16 µM
[12] = second compound 0.1 µM, first compound 10 µM
[13] = second compound 0.316 µM, first compound 0.0316 µM
[14] = second compound 0.316 µM, first compound 0.1 µM
[15] = second compound 0.316 µM, first compound 0.316 µM
[16] = second compound 0.316 µM, first compound 1 µM
[17] = second compound 0.316 µM, first compound 3.16 µM
[18] = second compound 0.316 µM, first compound 10 µM
[19] = second compound 1 µM, first compound 0.0316 µM
[20] = second compound 1 µM, first compound 0.1 µM
[21] = second compound 1 µM, first compound 0.316 µM
[22] = second compound 1 µM, first compound 1 µM
[23] = second compound 1 µM, first compound 3.16 µM
[24] = second compound 1 µM, first compound 10 µM
[25] = second compound 3.16 µM, first compound 0.0316 µM
[26] = second compound 3.16 µM, first compound 0.1 µM
[27] = second compound 3.16 µM, first compound 0.316 µM
[28] = second compound 3.16 µM, first compound 1 µM
[29] = second compound 3.16 µM, first compound 3.16 µM
[30] = second compound 3.16 µM, first compound 10 µM
[31] = second compound 10 µM, first compound 0.0316 µM
[32] = second compound 10 µM, first compound 0.1 µM
[33] = second compound 10 µM, first compound 0.316 µM
[34] = second compound 10 µM, first compound 1 µM
[35] = second compound 10 µM, first compound 3.16 µM
[36] = second compound 10 µM, first compound 10 µM
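Note: spheroids exposed to drugs for 7 days before viability reading.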

## COc1cc(C2c3cc4c(cc3C(OC3OC5COC(C)OC5C(O)C3O)C3COC(=O)C23)OCO4)cc(OC)c1O (centres undefined) + CN(C)c1ccc(Nc2c3ccc(NC(=O)CCN4CCCC4)cc3nc3cc(NC(=O)CCN4CCCC4)ccc23)cc1
Second compound 0.0316 µM
  IC50: 3590 nM
Second compound 0.1 µM
  IC50: 8190 nM
Second compound 0.316 µM
  IC50: > 10000 nM
Second compound 1 µM
  IC50: 2750 nM
Second compound 3.16 µM
  IC50: 3120 nM
Second compound 10 µM
  IC50: 4290 nM
[1]
  viability, T/C: 101%
[2]
  viability, T/C: 96.2%
[3]
  viability, T/C: 84.5%
[4]
  viability, T/C: 59.8%
[5]
  viability, T/C: 56.8%
[6]
  viability, T/C: 40.3%
[7]
  viability, T/C: 111%
[8]
  viability, T/C: 96.6%
[9]
  viability, T/C: 85%
[10]
  viability, T/C: 70.6%
[11]
  viability, T/C: 57.8%
[12]
  viability, T/C: 48.5%
[13]
  viability, T/C: 96.4%
[14]
  viability, T/C: 107%
[15]
  viability, T/C: 82.7%
[16]
  viability, T/C: 67.2%
[17]
  viability, T/C: 56.8%
[18]
  viability, T/C: 47.8%
[19]
  viability, T/C: 95.9%
[20]
  viability, T/C: 92.8%
[21]
  viability, T/C: 94.6%
[22]
  viability, T/C: 72.3%
[23]
  viability, T/C: 47%
[24]
  viability, T/C: 46.6%
[25]
  viability, T/C: 95.9%
[26]
  viability, T/C: 94.9%
[27]
  viability, T/C: 85%
[28]
  viability, T/C: 63.9%
[29]
  viability, T/C: 49.7%
[30]
  viability, T/C: 46.6%
[31]
  viability, T/C: 68%
[32]
  viability, T/C: 63.6%
[33]
  viability, T/C: 67.1%
[34]
  viability, T/C: 55.5%
[35]
  viability, T/C: 54%
[36]
  viability, T/C: 42.9%

## COc1cccc2c1C(=O)c1c(O)c3c(c(O)c1C2=O)CC(O)(C(=O)CO)CC3OC1CC(N)C(O)C(C)O1 (centres undefined) + CN(C)c1ccc(Nc2c3ccc(NC(=O)CCN4CCCC4)cc3nc3cc(NC(=O)CCN4CCCC4)ccc23)cc1
Second compound 0.0316 µM
  IC50: 687 nM
Second compound 0.1 µM
  IC50: 910 nM
Second compound 0.316 µM
  IC50: 722 nM
Second compound 1 µM
  IC50: 787 nM
Second compound 3.16 µM
  IC50: 1010 nM
Second compound 10 µM
  IC50: 408 nM
[1]
  viability, T/C: 96.9%
[2]
  viability, T/C: 75.1%
[3]
  viability, T/C: 55.8%
[4]
  viability, T/C: 54.9%
[5]
  viability, T/C: 29.7%
[6]
  viability, T/C: 3.98%
[7]
  viability, T/C: 94.2%
[8]
  viability, T/C: 73.8%
[9]
  viability, T/C: 70.3%
[10]
  viability, T/C: 47.7%
[11]
  viability, T/C: 29.4%
[12]
  viability, T/C: 6.1%
[13]
  viability, T/C: 108%
[14]
  viability, T/C: 80.6%
[15]
  viability, T/C: 53.1%
[16]
  viability, T/C: 51.5%
[17]
  viability, T/C: 29.6%
[18]
  viability, T/C: 5.16%
[19]
  viability, T/C: 104%
[20]
  viability, T/C: 76.7%
[21]
  viability, T/C: 58.5%
[22]
  viability, T/C: 55.8%
[23]
  viability, T/C: 31%
[24]
  viability, T/C: 5.6%
[25]
  viability, T/C: 89.5%
[26]
  viability, T/C: 84.5%
[27]
  viability, T/C: 55.6%
[28]
  viability, T/C: 56.6%
[29]
  viability, T/C: 30.3%
[30]
  viability, T/C: 6.32%
[31]
  viability, T/C: 67.3%
[32]
  viability, T/C: 59.1%
[33]
  viability, T/C: 47.7%
[34]
  viability, T/C: 42.9%
[35]
  viability, T/C: 30.8%
[36]
  viability, T/C: 5.21%
